In paper PMC9221290, “Alkaloids of Dicranostigma franchetianum (Papaveraceae) and Berberine Derivatives as a New Class of Antimycobacterial Agents” (Biomolecules, 2022):
Values after ≈ are worked out from the molar mass of the structure shown. Like-named read-outs stand apart in the source and are kept apart here.

What was measured:
HepG2 cells [1] = assay: cells; conditions: Homo sapiens, HepG2, 24 h
HepG2 cells [2] = tested on: HepG2 cells
[3] = tested on: Mycobacterium avium DSM 44156 (ATCC 25291); assay: Antimycobacterial microdilution broth assay (resazurin), M. avium; type: cell-based; conditions: Mycobacterium avium, 96 h, read-out: MIC M. avium, microdilution broth, resazurin, 96 h
[4] = tested on: Mycolicibacterium aurum DSM 43999 (ATCC 23366); assay: Antimycobacterial microdilution broth assay (resazurin), M. aurum; type: cell-based; conditions: Mycolicibacterium aurum, 72 h, read-out: MIC M. aurum, microdilution broth, resazurin, 72 h
[5] = tested on: Mycobacterium kansasii DSM 44162 (ATCC 12478); assay: Antimycobacterial microdilution broth assay (resazurin), M. kansasii; type: cell-based; conditions: Mycobacterium kansasii, 96 h, read-out: MIC M. kansasii, microdilution broth, resazurin, 96 h
[6] = tested on: Mtb H37Ra ITM-M006710 (ATCC 9431); assay: Antimycobacterial microdilution broth assay (resazurin), Mtb H37Ra; type: cell-based, Mycobacterium tuberculosis; conditions: Mycobacterium tuberculosis, read-out: MIC Mtb H37Ra
in vitro = conditions: human, % of cell viability compared to control; for viability at 1 µM: HepG2, 1 µM; for viability at 5 µM: HepG2, 5 µM; for viability at 10 µM: HepG2, 10 µM; for viability at 25 µM: HepG2, 25 µM; for viability at 50 µM: HepG2, 50 µM; for viability at 75 µM: HepG2, 75 µM; for viability at 100 µM: HepG2, 100 µM; for viability at 0.1 µM: HepG2, 0.1 µM; for viability at 20 µM: HepG2, 20 µM; for viability at 30 µM: HepG2, 30 µM; for viability at 40 µM: HepG2, 40 µM
[7] = tested on: Mycolicibacterium smegmatis DSM 43465 (ATCC 607); assay: Antimycobacterial microdilution broth assay (resazurin), M. smegmatis; type: cell-based; conditions: Mycolicibacterium smegmatis, 48 h, read-out: MIC M. smegmatis, microdilution broth, resazurin, 48 h
[8] = tested on: five Mycobacterium or Mycolicibacterium strains; assay: organism not typed; type: cell-based; conditions: read-out: MICs against all tested mycobacterial strains
[9] = read-out: HepG2 IC50, 1. measurement, MTT, 24 h, single measurement 1
[10] = read-out: HepG2 IC50, 2. measurement, MTT, 24 h, single measurement 2
[11] = read-out: HepG2 IC50, 3. measurement, MTT, 24 h, single measurement 3
[12] = read-out: HepG2 IC50, MTT, 24 h incubation
[13] = 120 h, microdilution broth, resazurin, 120 h
[14] = calculated from MIC (µg/mL) and MW

Compound	IC50 (HepG2 cells [1]; [9])	IC50 (HepG2 cells [1]; [10])	IC50 (HepG2 cells [1]; [11])	IC50 (HepG2 cells [1]; [12])	SI (selectivity index) (HepG2 cells [2])	MIC [3]	MIC [4]	MIC [5]	MIC [6, 13]	MIC [6, 14]	viability at 1 µM (in vitro; 1. measurement)	viability at 5 µM (in vitro; 1. measurement)	viability at 10 µM (in vitro; 1. measurement)	viability at 50 µM (in vitro; 1. measurement)	viability at 1 µM (in vitro; 2. measurement)	viability at 5 µM (in vitro; 2. measurement)	viability at 10 µM (in vitro; 2. measurement)	viability at 50 µM (in vitro; 2. measurement)	viability at 1 µM (in vitro; 3. measurement)	MIC [7]	further results
COc1ccc2cc3[n+](cc2c1OCc1ccc(Br)cc1)CCc1cc2c(cc1-3)OCO2 [16g, 9-O-(4-brombenzyl)berberine chloride]	19.2 µM	26.9 µM	18.2 µM	21.4 ± 4.8 µM	2.89	1.98 µg/mL	3.91 µg/mL	0.98 µg/mL	3.91 µg/mL	7.42 µM	101%	70.1%	53.9%	42.5%	96.5%	76.3%	59.4%	47.8%	85%	0.98 µg/mL	viability at 25 µM (in vitro; 1. measurement): 46.7%; viability at 75 µM (in vitro; 1. measurement): 25.8%; viability at 100 µM (in vitro; 1. measurement): 17.9%; viability at 25 µM (in vitro; 2. measurement): 44.7%; viability at 75 µM (in vitro; 2. measurement): 40.7%; viability at 100 µM (in vitro; 2. measurement): 23.9%; viability at 5 µM (in vitro; 3. measurement): 72.1%; viability at 10 µM (in vitro; 3. measurement): 56.6%; viability at 25 µM (in vitro; 3. measurement): 45.8%; viability at 50 µM (in vitro; 3. measurement): 45.5%; viability at 75 µM (in vitro; 3. measurement): 26%; viability at 100 µM (in vitro; 3. measurement): 14%
COc1ccc2cc3[n+](cc2c1OCc1cccc(Cl)c1)CCc1cc2c(cc1-3)OCO2 [16h, 9-O-(3-chlorbenzyl)berberine chloride]	8.53 µM	11.9 µM	7.91 µM	9.44 ± 2.13 µM	1.59	1.56 µg/mL	1.56 µg/mL	3.12 µg/mL	3.12 µg/mL	5.93 µM	65.4%	66.5%	51.7%	36.5%	94.6%	67.4%	54.2%	12.8%	87.2%	0.78 µg/mL	viability at 25 µM (in vitro; 1. measurement): 44.2%; viability at 75 µM (in vitro; 1. measurement): 23.8%; viability at 100 µM (in vitro; 1. measurement): 15.7%; viability at 25 µM (in vitro; 2. measurement): 44.6%; viability at 75 µM (in vitro; 2. measurement): 1.14%; viability at 100 µM (in vitro; 2. measurement): 0.68%; viability at 5 µM (in vitro; 3. measurement): 54.4%; viability at 10 µM (in vitro; 3. measurement): 47.8%; viability at 25 µM (in vitro; 3. measurement): 36%; viability at 50 µM (in vitro; 3. measurement): 15.6%; viability at 75 µM (in vitro; 3. measurement): 2.92%; viability at 100 µM (in vitro; 3. measurement): 0.98%
COc1ccc2cc3[n+](cc2c1OCc1ccc(Cl)cc1)CCc1cc2c(cc1-3)OCO2 [16i, 9-O-(4-chlorbenzyl)berberine chloride]	15.9 µM	14.7 µM	18 µM	16.2 ± 1.67 µM	2.73	1.56 µg/mL	3.12 µg/mL	6.25 µg/mL	3.12 µg/mL	5.93 µM	101%	82.3%	55.3%	4.45%	93.6%	78%	56%	3.4%	100%	1.56 µg/mL	viability at 0.1 µM (in vitro; 1. measurement): 96.1%; viability at 20 µM (in vitro; 1. measurement): 48.5%; viability at 30 µM (in vitro; 1. measurement): 42.3%; viability at 40 µM (in vitro; 1. measurement): 24.7%; viability at 0.1 µM (in vitro; 2. measurement): 91.6%; viability at 20 µM (in vitro; 2. measurement): 48.4%; viability at 30 µM (in vitro; 2. measurement): 40%; viability at 40 µM (in vitro; 2. measurement): 21.4%; viability at 0.1 µM (in vitro; 3. measurement): 98.2%; viability at 5 µM (in vitro; 3. measurement): 82.3%; viability at 10 µM (in vitro; 3. measurement): 61.1%; viability at 20 µM (in vitro; 3. measurement): 54.6%; viability at 30 µM (in vitro; 3. measurement): 45%; viability at 40 µM (in vitro; 3. measurement): 25.8%; viability at 50 µM (in vitro; 3. measurement): 2.8%
COc1ccc2cc3[n+](cc2c1OCc1ccc(Cl)c(Cl)c1)CCc1cc2c(cc1-3)OCO2 [16k, 9-O-(3,4-dichlorbenzyl)berberine chloride]	13.3 µM	14.8 µM	9.9 µM	12.7 ± 2.51 µM	4.55	1.56 µg/mL	1.56 µg/mL	6.25 µg/mL	1.56 µg/mL	2.78 µM	97.6%	66.5%	50.4%	35%	97.8%	79.2%	46.7%	35%	85.7%	1.56 µg/mL	viability at 25 µM (in vitro; 1. measurement): 43.4%; viability at 75 µM (in vitro; 1. measurement): 13.2%; viability at 100 µM (in vitro; 1. measurement): 2.33%; viability at 25 µM (in vitro; 2. measurement): 35.5%; viability at 75 µM (in vitro; 2. measurement): 28.2%; viability at 100 µM (in vitro; 2. measurement): 4.02%; viability at 5 µM (in vitro; 3. measurement): 67%; viability at 10 µM (in vitro; 3. measurement): 46.9%; viability at 25 µM (in vitro; 3. measurement): 43.6%; viability at 50 µM (in vitro; 3. measurement): 11.7%; viability at 75 µM (in vitro; 3. measurement): 0.77%; viability at 100 µM (in vitro; 3. measurement): 0.81%
CCOC1c2c(ccc(OC)c2OC)-c2ccc3cc4c(cc3c2N1C)OCO4 (stereo not drawn) [compound 3, 6-ethoxydihydrochelerythrine]						31.2 µg/mL (≈ 79.4 µM)	15.6 µg/mL (≈ 39.7 µM)	31.2 µg/mL (≈ 79.4 µM)	31.2 µg/mL	79 µM										31.2 µg/mL (≈ 79.4 µM)	MIC [8]: 15.6 to 31.2 µg/mL (≈ 39.7 to 79.4 µM)
